Source: a melting point compilation (Tetko et al.; mined from patent text by program, amines drawn as free bases though some values may be those of a salt)

| Structure (SMILES) | melting point |
| --- | --- |
| Cc1cc(C(=N)NO)ccc1-c1cccc(-c2nc3cc(C(=N)NO)ccc3[nH]2)c1 | 295 to 297 °C |
| O=c1[nH]c2cc(Cl)cc(Cl)c2c(=O)n1Cc1ccccc1Cl | 193 to 198 °C |
| CSC1C(=O)Nc2c(OCc3ccccc3)cccc21 (configuration not stated) | 127 to 129 °C |
| COC(=O)/C=C/c1ccc(N(C)C(C)=O)nc1 | 94.3 °C |
| CCCCc1nc(Cl)c(CC=CO)n1Cc1ccc(NC(=O)c2ccccc2C(=O)O)cc1 | 150 to 151 °C |
| COC(=O)[C@H](c1ccccc1Cl)N1CCc2sc(OC(=O)c3ccccc3)cc2C1 | 84 to 86 °C |
| COC(=O)c1ccccc1S(=O)(=O)NC(=O)n1nc(OCC(F)(F)F)n(C)c1=O | 153 °C |
| CC(=O)CCN(CCN)c1nc2cc(Cl)ccc2o1 | 126 °C |
| CCC1(C)CC2(NC(=O)N(c3ccccc3)C2=O)C(C)C(C)(CC)N1 (configuration not stated) | 150 to 153 °C |
| c1cn(-c2cc(-n3cnc4cc(-c5ccoc5)ccc43)ncn2)cn1 | 294 to 296 °C |
| COc1cc(COc2nn(Cc3ccccc3)cc2C(C)=O)ccc1OCc1nc(-c2ccco2)oc1C | 144 to 145 °C |
| CC(C)C(C)(C(=O)O)N1C(=O)c2ccccc2C1=O (configuration not stated) | 151 to 152 °C |
| CNC(=O)CCC(O)c1ccccc1 (configuration not stated) | 67 to 69 °C |
| COc1ccc(-c2ccc(OC3SCC(OC(C)=O)C(OC(C)=O)C3OC(C)=O)cn2)cc1 (configuration not stated) | 208 °C |
| CCOC(=O)c1cn2c3c(cc(I)cc3c1=O)N(C)C(=O)C2 | 278 to 283 °C |
| Nc1c(F)c(F)cc2c1c(=O)c(C(=O)O)cn2C1COC1 | > 300 °C |
| CCc1c(C)c(NC(=O)CC(C)(C)C)c(C)c2c1OCC2c1ccc(C(C)C)cc1 (configuration not stated) | 135 to 136 °C |
| CCCn1cc2c(C3C(=O)Nc4ccc(Br)cc43)nc(NCCN3CCOCC3)nc2n1 (configuration not stated) | 299 to 303 °C |
| Cc1c(N)cc(Cl)cc1N | 75 to 77 °C |
| NC(=O)OCC(O)Cn1oc2ccc(Cl)cc2c1=O (configuration not stated) | 161 to 162 °C |
| ClCCCOc1cc(Cl)c(OCCCCl)cc1Cl | 162 °C |
| O=c1cc(C(F)(F)F)c2c(O)cc(O)cc2o1 | 212 to 214 °C |
| COC(=O)C1CN(C(=O)c2cc(OC)c(OC)c(OC)c2)CCN1C(=O)OC(C)(C)C (configuration not stated) | 163 to 164 °C |
| CCCCCCCCCCC1COC(=O)N1 (configuration not stated) | 31.5 to 32.5 °C |

| Structure (SMILES) | melting point |
| --- | --- |
| CCN1CCCC1CNC(=O)c1cc(S(=O)(=O)CC)cc2c1OCCO2 (configuration not stated) | 111 to 122 °C |
| Oc1ccccc1-c1c(Cl)cccc1Cl | 100 to 103 °C |
| CC1CCNC(=C2C(=O)CC(C(C)C)CC2=O)N1 (configuration not stated) | 71 to 83 °C |
| Cn1ccc(=O)c(-c2cccc(C(F)(F)F)c2)c1 | 122 to 123 °C |
| CC(=O)N1CCN(c2cc3c(c(N)c2F)c(=O)c(C(=O)O)cn3C2CC2)CC1C (configuration not stated) | 269 to 271 °C |
| CCC(O)(CC)[C@H](C[C@H](O)[C@H](CC1CCCCC1)NC(=O)OC(C)(C)C)C(=O)NC | 152 to 155 °C |
| O=C(Cl)c1cc(C(=O)Cl)[nH]n1 | 89 to 91 °C |
| CCCc1c(OCCOc2ccccc2C(=O)O)ccc(C(C)=O)c1O | 108 to 110 °C |
| CC(C)n1nc(-c2c(-c3ccccc3)nn3ccc(OCCN4CCCCC4)cc23)ccc1=O | 144 °C |
| CC(=O)COc1ccc(N2N=C3c4ccccc4SCC3CC2=O)cc1 (configuration not stated) | 177 to 180 °C |
| COc1cccc(OCC(O)c2cccc(OCc3ccc4ccccc4n3)c2)c1 (configuration not stated) | 103 to 105 °C |
| Nc1c(SC(F)(F)F)nc(Br)n1-c1c(Cl)cc(C(F)(F)F)cc1Cl | 154 °C |
| O=S(=O)(c1ccc(C(CC2CCOCC2)c2ccc(-c3nnc(CO)s3)[nH]2)cc1)C1CC1 (configuration not stated) | 208 to 209 °C |
| CCCc1nc2cccc(C(=O)OC)c2n1Cc1ccc(-c2ccccc2C(=N)NOC(C)=O)cc1 | 177 to 178 °C |
| O=C1N(Cc2c[nH]cn2)CCN1c1cccc(Cl)c1 | 201 to 203 °C |
| Cc1ccc(CO)nc1-c1ccccn1 | 51 to 53 °C |
| COc1cccc(Nn2cnc(C)c2-c2ccccc2)c1 | 156 to 158 °C |
| COc1cc2c(cc1Br)CC(C)NN=C2c1ccc([N+](=O)[O-])cc1 (configuration not stated) | 172 to 174 °C |
| CCCCCCN(C)c1ccc(C=C2SC(=S)N(CC(=O)NS(=O)(=O)c3ccccc3)C2=O)cc1 | 173 to 177 °C |
| O=C(c1ccc(C(F)(F)F)cc1)N1Cc2c(-c3ccc(F)cc3)ncn2-c2ccccc21 | 211 to 212 °C |
| CCCCc1ccc(N(Cc2ccc(N(C)C)cc2)C(=O)C2CCCc3c(O)cccc32)cc1 (configuration not stated) | 138 °C |
| Cc1csc2nc(COc3ccccc3)cn12 | 190 to 192 °C |
| Cc1ncn(-c2nc(-c3ccc(Cl)cc3)c(CCC(=O)O)o2)c1C | 225 to 226 °C |
| COC(=O)C1(C(F)F)c2ccccc2Oc2ccccc21 | 101 °C |

| Structure (SMILES) | melting point |
| --- | --- |
| SCC1CSC2(SCCS2)S1 (configuration not stated) | 79 to 80.5 °C |
| O=[N+]([O-])c1cc(-c2ncnc(C(F)F)c2Cl)c(Cl)cc1Cl | 107 to 109 °C |
| O=C(O)c1nc(Oc2cccc(C(F)(F)F)c2)ccc1Cl | 90 to 92 °C |
| CCc1cccc(CC)c1NC(=O)N(CC1CCCCC1)C1CCC(c2ccccc2)CC1 (configuration not stated) | 166 to 168 °C |
| COCc1c(C(=O)OC(C)C)ncc2c1c1c(OCc3ccccc3)cccc1n2CC(=O)N(C)CCc1ccccc1 | 146 to 147 °C |
| CCOC(=O)C(C)=NNc1ccc(Br)cc1 | 153 to 154 °C |
| CC(=O)OC1=CC2=CCC3C4CC(C)C(O)(CC(=O)OC(=O)C(C)(C)C)C4(C)CC4OC43C2(C)C=C1 (configuration not stated) | 108 to 120 °C |
| CC(C)n1cc(-c2ccc(C=O)cc2)c2c(N)ncnc21 | 198 to 200 °C |
| O=C(Cc1cccc2ccccc12)Nc1cc([C@H]2C[C@@H](NC(=O)c3cccc(C(F)(F)F)c3)C2)[nH]n1 | 143 °C |
| c1cc(N=Nc2ccncc2)ccn1 | 87 to 89 °C |
| Nc1ccc(Nc2c(NCC3CCCO3)cc(C(=O)O)cc2S(N)(=O)=O)cc1 (configuration not stated) | 253 °C |
| COc1ccc(C2(C#Cc3ccc(C(=O)O)cc3)CCC(=O)CC2)cc1OC1CCCC1 | 170 to 171 °C |
| C#CC1(Oc2ccc(F)cc2[N+](=O)[O-])CCN(C)CC1 | 70 to 73 °C |
| CCCCCCCP(=O)(O)O[C@@H](CCCCN)C(=O)N1CCC[C@H]1C(=O)O | 180 to 186 °C |
| Cc1cc(NS(=O)(=O)c2ccc(S(N)(=O)=O)cc2)c2[nH]cc(Br)c2c1 | 196 to 197 °C |
| O=C1CC=C(c2c[nH]c3cc([N+](=O)[O-])ccc23)CC1 | 175 to 177 °C |
| COc1ccc2cc(-c3ncn[nH]3)ccc2n1 | 198 to 200 °C |
| OCC1Cc2c([nH]c3ccccc23)CN1C(=S)SCc1ccc(Cl)cc1 (configuration not stated) | 175 to 176 °C |
| CC(=O)Nc1nc(NC(C)=O)nc(NC2CC2)n1 | 267 to 269 °C |
| CCCC1=C(C(=O)OCC)C(c2ccccc2OCc2ccccc2)c2c[nH]nc2N1 (configuration not stated) | 128 °C |
| Nc1cc(F)ccc1C(=O)C1CCN(CCn2c(=O)[nH]c3ccccc3c2=O)CC1 | 270 °C |
| CC(C)CCN1C(=O)C2(COc3cc(O)c(C(=O)C(F)(F)F)cc32)c2ccccc21 (configuration not stated) | 87 to 88 °C |
| NS(=O)(=O)c1ccc(OCCOc2ccc(C(=O)C(=O)O)cc2)cc1 | 178 to 179 °C |
| CCc1nn(Cc2n[nH]c(=O)o2)c(CC)c1Oc1cc(Cl)cc(Cl)c1 | 138 to 142 °C |
